Source: patent publication US5210193A, “Piperazine derivatives” (American Cyanamid Company, priority 1990, dated 1993)
Values after ≈ are worked out from the molar mass of the structure shown. Read-outs that look alike come from different tables or passages of the source. Values belong to the molecule of their own block, whether it stands above or below them.

What was measured:
Test in all cases: in vitro antibacterial MIC, agar plate dilution
Assay type in all cases: cell-based
[1] = tested on: Staphylococcus epidermidis VGH 84-40; conditions: 35° C.
Method in brief: (§1)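 Read-out is visible growth inhibition on Mueller-Hinton agar dilution plates incubated 18 hours at 35° C after inoculation of ~10^4 CFU (Steers device), with MIC reported in mcg/ml.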

[2] = tested on: Morganella morganii VGH 84-11; conditions: 35° C.
Method in brief: as §1

[3] = tested on: Staphylococcus aureus Smith; conditions: 35° C.
Method in brief: as §1

Klebsiella pneumoniae AD = conditions: 35° C.
Method in brief: as §1

[4] = tested on: Enterobacter aerogenes VGH 84-36; conditions: 35° C.
Method in brief: as §1

[5] = tested on: Pseudomonas aeruginosa VGH 84-4; conditions: 35° C.
Method in brief: as §1

[6] = tested on: Acinetobacter calcoaceticus MOR 84-43; conditions: 35° C.
Method in brief: as §1

[7] = tested on: Enterobacter cloacae K 84-10; conditions: 35° C.
Method in brief: as §1

[8] = tested on: Escherichia coli PRNT 311; conditions: 35° C.
Method in brief: as §1

[9] = tested on: Staphylococcus aureus ATTC 29213; conditions: 35° C.
Method in brief: as §1

[10] = tested on: Serratia marcescens K 84-18; conditions: 35° C.
Method in brief: as §1

Escherichia coli NAR 311 = conditions: 35° C.
Method in brief: as §1

[11] = tested on: Staphylococcus aureus CMC 83-127; conditions: 35° C.
Method in brief: as §1

[12] = tested on: Serratia marcescens F 0-35; conditions: 35° C.
Method in brief: as §1

[13] = tested on: Streptococcus faecalis ATTC 29212; conditions: 35° C.
Method in brief: as §1

[14] = tested on: Escherichia coli ATCC 25922; conditions: 35° C.
Method in brief: as §1

[15] = tested on: Staphylococcus aureus VGH 84-46; conditions: 35° C.
Method in brief: as §1

[16] = tested on: Pseudomonas aeruginosa LL-1244; conditions: 35° C.
Method in brief: as §1

[17] = tested on: Morganella morganii CMC 84-37; conditions: 35° C.
Method in brief: as §1

[18] = tested on: Enterobacter cloacae VGH 84-37; conditions: 35° C.
Method in brief: as §1

[19] = tested on: Staphylococcus Spp saprophiticus VGH 84-50; conditions: 18 hours, 35° C.
Method in brief: as §1

[20] = tested on: Klebsiella pneumoniae MOR 84-4; conditions: 35° C.
Method in brief: as §1

[21] = tested on: Escherichia coli CMC 84-11; conditions: 35° C.
Method in brief: as §1

[22] = tested on: Staphylococcus aureus VGH 84-45; conditions: 35° C.
Method in brief: as §1

[23] = tested on: Streptococcus faecalis VGH 84-65; conditions: 35° C.
Method in brief: as §1

[24] = tested on: Staphylococcus epidermidis CMC 83-135; conditions: 35° C.
Method in brief: as §1

[25] = tested on: Escherichia coli CMC 84-16; conditions: 35° C.
Method in brief: as §1

[26] = tested on: Staphylococcus epidermidis IO 83-58; conditions: 35° C.
Method in brief: as §1

[27] = tested on: Staphylococcus aureus CMC 83-128; conditions: 35° C.
Method in brief: as §1

[28] = tested on: Proteus rettgeri CMC 84-41; conditions: 35° C.
Method in brief: as §1

[29] = tested on: Klebsiella oxytoca MOR 84-28; conditions: MOR8428, 18 hours, 35° C.
Method in brief: as §1

[30] = VGH8411, 18 hours, read-out: MIC
[31] = Staphylococcus aureus, 18 h, read-out: MIC
[32] = Klebsiella pneumoniae, 18 h, read-out: MIC
[33] = Klebsiella aerogenes, VGH8436, 18 hours, read-out: MIC
[34] = Pseudomonas aeruginosa, VGH844, 18 h, read-out: MIC
[35] = MOR8443, 18 hours, read-out: MIC
[36] = Enterobacter cloacae, K8410, 18 h, read-out: MIC
[37] = PRNT311, 18 hours, read-out: MIC
[38] = Staphylococcus aureus, ATTC29213, 18 h, read-out: MIC
[39] = Serratia marcescens, K8418, 18 h, read-out: MIC
[40] = NAR311, 18 hours, read-out: MIC
[41] = Staphylococcus aureus, CMC83127, 18 h, read-out: MIC
[42] = Serratia marcescens, F035, 18 h, read-out: MIC
[43] = Enterococcus faecalis, ATTC29212, 18 hours, read-out: MIC
[44] = Escherichia coli, ATCC25922, 18 h, read-out: MIC
[45] = Pseudomonas aeruginosa, LL1244, 18 h, read-out: MIC
[46] = Morganella morganii, CMC8437, 18 h, read-out: MIC
[47] = Enterobacter cloacae, VGH8437, 18 h, read-out: MIC
[48] = Klebsiella pneumoniae, MOR844, 18 h, read-out: MIC
[49] = Escherichia coli, CMC8411, 18 h, read-out: MIC
[50] = Staphylococcus aureus, VGH8445, 18 h, read-out: MIC
[51] = Enterococcus faecalis, VGH8465, 18 h, read-out: MIC
[52] = CMC83135, 18 hours, read-out: MIC
[53] = Escherichia coli, CMC8416, 18 h, read-out: MIC
[54] = IO8358, 18 hours, read-out: MIC
[55] = CMC83128, 18 hours, read-out: MIC
[56] = Providencia rettgeri, CMC8441, 18 h, read-out: MIC

MIC ([1]; 18 hours): 0.25 µg/mL (≈ 0.677 µM)
MIC ([2]; 18 hours): 0.12 µg/mL (≈ 0.325 µM)
MIC ([3]; 18 hours): 0.25 µg/mL (≈ 0.677 µM)
MIC (Klebsiella pneumoniae AD; 18 hours): 0.12 µg/mL (≈ 0.325 µM)
MIC ([4]; 18 hours): 0.12 µg/mL (≈ 0.325 µM)
MIC ([5]; 18 hours): 1 µg/mL (≈ 2.71 µM)
MIC ([6]; 18 hours): 0.5 µg/mL (≈ 1.35 µM)
MIC ([7]; 18 hours): 0.06 µg/mL (≈ 0.162 µM)
MIC ([8]; 18 hours): 0.06 µg/mL (≈ 0.162 µM)
MIC ([9]; 18 hours): 0.25 µg/mL (≈ 0.677 µM)
MIC ([10]; 18 hours): 0.25 µg/mL (≈ 0.677 µM)
MIC (Escherichia coli NAR 311; 18 hours): 1 µg/mL (≈ 2.71 µM)
MIC ([11]; 18 hours): 0.12 µg/mL (≈ 0.325 µM)
MIC ([12]; 18 hours): 0.25 µg/mL (≈ 0.677 µM)
MIC ([13]; 18 hours): 4 µg/mL (≈ 10.8 µM)
MIC ([14]; 18 hours): 0.06 µg/mL (≈ 0.162 µM)
MIC ([15]; 18 hours): 0.25 µg/mL (≈ 0.677 µM)
MIC ([16]; 18 hours): 8 µg/mL (≈ 21.7 µM)
MIC ([17]; 18 hours): 0.12 µg/mL (≈ 0.325 µM)
MIC ([18]; 18 hours): 0.12 µg/mL (≈ 0.325 µM)
MIC [19]: 1 µg/mL (≈ 2.71 µM)
MIC ([20]; 18 hours): 0.12 µg/mL (≈ 0.325 µM)
MIC ([21]; 18 hours): 0.06 µg/mL (≈ 0.162 µM)
MIC ([22]; 18 hours): 0.12 µg/mL (≈ 0.325 µM)
MIC ([23]; 18 hours): 4 µg/mL (≈ 10.8 µM)
MIC ([24]; 18 hours): 0.25 µg/mL (≈ 0.677 µM)
MIC ([25]; 18 hours): 0.06 µg/mL (≈ 0.162 µM)
MIC ([26]; 18 hours): 0.25 µg/mL (≈ 0.677 µM)
MIC ([27]; 18 hours): 0.25 µg/mL (≈ 0.677 µM)
MIC ([28]; 18 hours): 0.25 µg/mL (≈ 0.677 µM)
Structure (SMILES): CCn1cc(C(=O)O)c(=O)c2cc(F)c(N3CCNC(CF)C3)c(F)c21 (single isomer, unassigned; (+)) [Example 65, (+)-N-Ethyl-6,8-difluoro-7-[3-(fluoromethyl)-1-piperazinyl]-1,4-dihydro-4-oxo-3-quinolinecarboxylic acid]

MIC [2, 30]: 2 µg/mL (≈ 5.37 µM)
MIC [3, 31]: 0.25 µg/mL (≈ 0.671 µM)
MIC (Klebsiella pneumoniae AD; [32]): 2 µg/mL (≈ 5.37 µM)
MIC [4, 33]: 8 µg/mL (≈ 21.5 µM)
MIC [5, 34]: 32 µg/mL (≈ 85.9 µM)
MIC [6, 35]: 2 µg/mL (≈ 5.37 µM)
MIC [7, 36]: 2 µg/mL (≈ 5.37 µM)
MIC [8, 37]: 2 µg/mL (≈ 5.37 µM)
MIC [9, 38]: 0.5 µg/mL (≈ 1.34 µM)
MIC [10, 39]: 2 µg/mL (≈ 5.37 µM)
MIC (Escherichia coli NAR 311; [40]): 128 µg/mL (≈ 344 µM)
MIC [11, 41]: 0.5 µg/mL (≈ 1.34 µM)
MIC [12, 42]: 2 µg/mL (≈ 5.37 µM)
MIC [13, 43]: 8 µg/mL (≈ 21.5 µM)
MIC [14, 44]: 1 µg/mL (≈ 2.69 µM)
MIC [16, 45]: 64 µg/mL (≈ 172 µM)
MIC [17, 46]: 4 µg/mL (≈ 10.7 µM)
MIC [18, 47]: 4 µg/mL (≈ 10.7 µM)
MIC ([19]; read-out: MIC): 4 µg/mL (≈ 10.7 µM)
MIC [29]: 2 µg/mL (≈ 5.37 µM)
MIC [20, 48]: 4 µg/mL (≈ 10.7 µM)
MIC [21, 49]: 1 µg/mL (≈ 2.69 µM)
MIC [22, 50]: 0.25 µg/mL (≈ 0.671 µM)
MIC [23, 51]: 32 µg/mL (≈ 85.9 µM)
MIC [24, 52]: 0.5 µg/mL (≈ 1.34 µM)
MIC [25, 53]: 2 µg/mL (≈ 5.37 µM)
MIC [26, 54]: 0.5 µg/mL (≈ 1.34 µM)
MIC [27, 55]: 1 µg/mL (≈ 2.69 µM)
MIC [28, 56]: 4 µg/mL (≈ 10.7 µM)
Structure (SMILES): CCn1cc(C(=O)O)c(=O)c2c(F)c(F)c(N3CCSCC3)c(F)c21 [Example 89, 1-Ethyl-5,6,8-trifluoro-1,4-dihydro-4-oxo-7-(4-thiomorpholinyl)-3-quinolinecarboxylic acid]

MIC ([1]; VGH8440, 18 hours, read-out: MIC): 0.25 µg/mL (≈ 0.677 µM)
MIC [2, 30]: 0.5 µg/mL (≈ 1.35 µM)
MIC [3, 31]: 0.25 µg/mL (≈ 0.677 µM)
MIC (Klebsiella pneumoniae AD; [32]): 0.12 µg/mL (≈ 0.325 µM)
MIC [4, 33]: 0.25 µg/mL (≈ 0.677 µM)
MIC [5, 34]: 2 µg/mL (≈ 5.42 µM)
MIC [6, 35]: 0.5 µg/mL (≈ 1.35 µM)
MIC [7, 36]: 0.12 µg/mL (≈ 0.325 µM)
MIC [8, 37]: 0.12 µg/mL (≈ 0.325 µM)
MIC [9, 38]: 0.25 µg/mL (≈ 0.677 µM)
MIC [10, 39]: 0.06 µg/mL (≈ 0.162 µM)
MIC (Escherichia coli NAR 311; [40]): 1 µg/mL (≈ 2.71 µM)
MIC [11, 41]: 0.12 µg/mL (≈ 0.325 µM)
MIC [12, 42]: 0.5 µg/mL (≈ 1.35 µM)
MIC [13, 43]: 4 µg/mL (≈ 10.8 µM)
MIC [14, 44]: 0.06 µg/mL (≈ 0.162 µM)
MIC ([15]; Staphylococcus aureus, VGH8446, 18 h, read-out: MIC): 0.25 µg/mL (≈ 0.677 µM)
MIC [16, 45]: 8 µg/mL (≈ 21.7 µM)
MIC [17, 46]: 0.12 µg/mL (≈ 0.325 µM)
MIC [18, 47]: 0.5 µg/mL (≈ 1.35 µM)
MIC ([19]; read-out: MIC): 0.06 µg/mL (≈ 0.162 µM)
MIC [20, 48]: 0.12 µg/mL (≈ 0.325 µM)
MIC [21, 49]: 0.06 µg/mL (≈ 0.162 µM)
MIC [22, 50]: 0.25 µg/mL (≈ 0.677 µM)
MIC [23, 51]: 4 µg/mL (≈ 10.8 µM)
MIC [24, 52]: 0.5 µg/mL (≈ 1.35 µM)
MIC [25, 53]: 0.06 µg/mL (≈ 0.162 µM)
MIC [26, 54]: 0.25 µg/mL (≈ 0.677 µM)
MIC [27, 55]: 0.03 µg/mL (≈ 0.0812 µM)
MIC [28, 56]: 0.5 µg/mL (≈ 1.35 µM)
Structure (SMILES): CCn1cc(C(=O)O)c(=O)c2cc(F)c(N3CCNC(CF)C3)c(F)c21 (racemic) [Example 63, (racemic)-N-Ethyl-6,8-difluoro-7-[3-(fluoromethyl)-1-piperazinyl]-1,4-dihydro-4-oxo-3-quinolinecarboxylic acid]
